The values that follow come from PMC8102066 (eLife, 2021).

The target in one data set is T1, mGluR2-I779A (Rattus norvegicus, UniProt P31421, I779A).
T1 construct: we performed calcium imaging experiments with mutations in the full-length mGluR2 background; expressed in transfected cells; host or cells: HEK 293 T
In words: Calcium imaging in HEK 293 T cells. It is filed as cell-based. The settings on record: for Calcium response amplitude: mGluR2-I779A. On the procedure:
Approximately 30 ROIs were analyzed per movie.

For data set [1], the target named is mGluR2 (Rattus norvegicus, UniProt P31421). In words: Calcium imaging (G protein chimera, GCaMP6f) in HEK 293 T cells.
Chain of mGluR2 (Rattus norvegicus, UniProt P31421) (P31421 19-872): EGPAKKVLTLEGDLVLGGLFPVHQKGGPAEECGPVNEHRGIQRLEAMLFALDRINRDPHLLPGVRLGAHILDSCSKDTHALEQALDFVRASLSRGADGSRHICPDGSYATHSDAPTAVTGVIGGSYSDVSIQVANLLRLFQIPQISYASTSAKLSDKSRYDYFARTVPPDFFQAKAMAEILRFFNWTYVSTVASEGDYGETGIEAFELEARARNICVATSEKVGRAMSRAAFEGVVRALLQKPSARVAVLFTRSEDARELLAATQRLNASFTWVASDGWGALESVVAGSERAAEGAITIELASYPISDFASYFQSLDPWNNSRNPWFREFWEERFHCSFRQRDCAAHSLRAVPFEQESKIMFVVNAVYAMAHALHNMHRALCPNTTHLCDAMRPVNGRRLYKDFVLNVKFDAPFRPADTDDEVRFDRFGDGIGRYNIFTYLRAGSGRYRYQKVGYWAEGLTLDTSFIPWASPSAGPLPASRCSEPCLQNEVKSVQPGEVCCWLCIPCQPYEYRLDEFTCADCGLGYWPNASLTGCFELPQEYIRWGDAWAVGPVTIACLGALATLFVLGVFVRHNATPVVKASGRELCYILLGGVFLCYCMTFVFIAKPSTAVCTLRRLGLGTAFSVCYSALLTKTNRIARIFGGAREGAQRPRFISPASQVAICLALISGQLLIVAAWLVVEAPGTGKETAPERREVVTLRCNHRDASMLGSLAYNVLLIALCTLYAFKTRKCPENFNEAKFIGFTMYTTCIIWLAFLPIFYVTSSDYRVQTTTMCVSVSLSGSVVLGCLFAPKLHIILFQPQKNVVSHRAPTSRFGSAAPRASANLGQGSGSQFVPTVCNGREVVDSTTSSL
For a further data set, the target named is mGluR2-3xTM4 (Rattus norvegicus, UniProt P31421, A677S/A681F/A685G). Described as above. As to conditions: for Calcium response amplitude: normalized to 1 mM glutamate, replicates.
Chain of mGluR2-3xTM4 (P31421 19-872 A677S/A681F/A685G): as the sequence (P31421 19-872) above, with A659S, A663F, A667G counted along it
The target of another data set is mGluR2-TMD (Rattus norvegicus, UniProt P31421). In words: SiMPull subunit counting in the presence of ligands. The settings on record: for % Dimerization: SNAP-mGluR2-TMD in presence of the ligand, single replicates per experiment day; for effect of ligand on dimerization (SiMPull): saturating concentration.
Chain of mGluR2-TMD (P31421 558-821 limits assumed): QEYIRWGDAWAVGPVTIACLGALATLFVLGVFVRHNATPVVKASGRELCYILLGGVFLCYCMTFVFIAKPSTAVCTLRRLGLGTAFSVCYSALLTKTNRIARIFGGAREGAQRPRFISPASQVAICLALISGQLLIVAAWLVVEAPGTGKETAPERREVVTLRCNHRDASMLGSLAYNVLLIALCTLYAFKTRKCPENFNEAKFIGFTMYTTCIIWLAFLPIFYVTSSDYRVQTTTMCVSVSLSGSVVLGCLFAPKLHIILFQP
For the next data set, the system named is mGluR2-TMD-3xTM4. The description is as above. The settings on record: for % Dimerization: SNAP-mGluR2-TMD-3xTM4 in presence of the ligand, single replicates per experiment day. Further details: species or system rat.
The test system of the next data set is mGluR2-TMD-I779A. The description is as above. Also noted: species or system rat. As to conditions: for % Dimerization: SNAP-mGluR2-TMD-I779A in presence of the ligand, single replicates per experiment day.
The test system of a further data set is mGluR2-TMD-3xTM4-I779A. The data set is described as above. As to conditions: for % Dimerization: SNAP-mGluR2-TMD-3xTM4-I779A in presence of the ligand, single replicates per experiment day; for effect of ligand on dimerization (SiMPull): saturating concentration. Also noted: species or system rat.
Another data set addresses T2, mGluR2-C121A (Rattus norvegicus, UniProt P31421, C121A).
T2 construct: expressed in transfected cells; host or cells: HEK 293 T (detergent lysate, pulled down by anti-HA antibody)
The description is as above. The settings on record: SNAP-mGluR2-C121A in presence of the ligand; single replicates per experiment day.

In the next data set the target is T3, mGluR2-C121A-3xTM4 (Rattus norvegicus, UniProt P31421, A677S/A681F/A685G/C121A).
T3 construct: expressed in transfected cells; host or cells: HEK 293 T (detergent lysate, pulled down by anti-HA antibody)
T3 sequence (P31421 19-872 C121A/A677S/A681F/A685G): as the sequence (P31421 19-872) above, with C103A, A659S, A663F, A667G counted along it
The data set is described as above. The settings on record: for % Dimerization: SNAP-mGluR2-C121A-3xTM4 in presence of the ligand, single replicates per experiment day.

For another data set, the target named is T4, mGluR2-C121A-I779A (Rattus norvegicus, UniProt P31421, C121A/I779A).
T4 construct: expressed in transfected cells; host or cells: HEK 293 T (detergent lysate, pulled down by anti-HA antibody)
T4 sequence (P31421 19-872 C121A/I779A): as the sequence (P31421 19-872) above, with C103A, I761A counted along it
The description is as above. As to conditions: for % Dimerization: SNAP-mGluR2-C121A-I779A in presence of the ligand, single replicates per experiment day.

The next data set has as its target T5, mGluR2-C121A-3xTM4-I779A (Rattus norvegicus, UniProt P31421, A677S/A681F/A685G/C121A/I779A).
T5 construct: expressed in transfected cells; host or cells: HEK 293 T (detergent lysate, pulled down by anti-HA antibody)
Described as above. As to conditions: SNAP-mGluR2-C121A-3xTM4-I779A in presence of the ligand; single replicates per experiment day.

The subject of another data set is group II mGluR. Further details: method as in Hemstapat et al., 2007. As to conditions: ref Hemstapat et al., 2007; cited from earlier work.
In data set [2] the target is mGluR2 (Rattus norvegicus, UniProt P31421, INS660ASEIGTGFPFDPHYVEVLGERMHYVDVGPRDGTPVLFLHGNPTSSYVWRNIIPHVAPTHRCIAPDLIGMGKSDKPDLGYFFDDHVRFMDAFIEALGLEEVVLVIHDWGSALGFHWAKRNPERVKGIAFMEFIRPIPTWDEWPEFARETFQAFRTTDVGRKLIIDQNVFIEGTLPMGVVRPLTEVEMDHYREPFLNPVDREPLWRFPNELPIAGEPANIVALVEEYMDWLHQSPVPKLLFWGTPGVLIPPAEAARLAKSLPNCKAVDIGPGLNLLQEDNPDLIGSEIARWLSTLEISGLE). The data set is described as follows: Inter-TMD FRET sensor (HaloTag in ICL2), live cells.
Chain of UniProt P31421 (P31421 with tags, fused parts or gaps with the stated changes): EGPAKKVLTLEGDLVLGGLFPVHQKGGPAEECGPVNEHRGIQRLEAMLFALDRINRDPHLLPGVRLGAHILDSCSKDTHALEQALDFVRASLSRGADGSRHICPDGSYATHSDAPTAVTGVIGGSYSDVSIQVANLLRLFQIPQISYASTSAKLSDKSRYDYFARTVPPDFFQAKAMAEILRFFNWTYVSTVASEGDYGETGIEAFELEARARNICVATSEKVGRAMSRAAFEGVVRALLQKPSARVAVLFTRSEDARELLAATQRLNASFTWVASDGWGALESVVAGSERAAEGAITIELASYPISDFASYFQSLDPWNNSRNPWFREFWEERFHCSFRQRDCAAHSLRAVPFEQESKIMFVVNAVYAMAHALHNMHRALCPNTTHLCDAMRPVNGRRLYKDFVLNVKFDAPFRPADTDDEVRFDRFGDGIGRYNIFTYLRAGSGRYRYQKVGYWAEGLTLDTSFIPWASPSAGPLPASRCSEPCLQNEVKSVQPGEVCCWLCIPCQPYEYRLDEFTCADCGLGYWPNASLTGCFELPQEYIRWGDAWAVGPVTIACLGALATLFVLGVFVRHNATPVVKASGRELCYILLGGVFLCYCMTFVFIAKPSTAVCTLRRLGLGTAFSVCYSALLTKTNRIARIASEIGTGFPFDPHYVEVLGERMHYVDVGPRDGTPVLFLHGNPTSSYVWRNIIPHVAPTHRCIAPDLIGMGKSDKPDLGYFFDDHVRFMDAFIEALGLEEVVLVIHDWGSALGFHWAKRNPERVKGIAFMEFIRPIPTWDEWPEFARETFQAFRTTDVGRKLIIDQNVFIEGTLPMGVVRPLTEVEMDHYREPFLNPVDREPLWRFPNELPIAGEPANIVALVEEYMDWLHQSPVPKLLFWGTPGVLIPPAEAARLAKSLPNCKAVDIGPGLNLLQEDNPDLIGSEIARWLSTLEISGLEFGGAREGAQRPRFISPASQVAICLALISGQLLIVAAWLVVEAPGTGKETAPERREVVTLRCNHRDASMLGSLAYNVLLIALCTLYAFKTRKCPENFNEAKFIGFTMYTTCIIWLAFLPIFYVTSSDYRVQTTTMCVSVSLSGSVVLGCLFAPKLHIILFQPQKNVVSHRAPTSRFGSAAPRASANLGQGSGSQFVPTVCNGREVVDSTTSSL

Data set [3] deals with mGluR3 (Rattus norvegicus, UniProt P31422, INS669ASEIGTGFPFDPHYVEVLGERMHYVDVGPRDGTPVLFLHGNPTSSYVWRNIIPHVAPTHRCIAPDLIGMGKSDKPDLGYFFDDHVRFMDAFIEALGLEEVVLVIHDWGSALGFHWAKRNPERVKGIAFMEFIRPIPTWDEWPEFARETFQAFRTTDVGRKLIIDQNVFIEGTLPMGVVRPLTEVEMDHYREPFLNPVDREPLWRFPNELPIAGEPANIVALVEEYMDWLHQSPVPKLLFWGTPGVLIPPAEAARLAKSLPNCKAVDIGPGLNLLQEDNPDLIGSEIARWLSTLEISGLE). The data set is described as above.
Chain of UniProt P31422 (P31422 with tags, fused parts or gaps with the stated changes): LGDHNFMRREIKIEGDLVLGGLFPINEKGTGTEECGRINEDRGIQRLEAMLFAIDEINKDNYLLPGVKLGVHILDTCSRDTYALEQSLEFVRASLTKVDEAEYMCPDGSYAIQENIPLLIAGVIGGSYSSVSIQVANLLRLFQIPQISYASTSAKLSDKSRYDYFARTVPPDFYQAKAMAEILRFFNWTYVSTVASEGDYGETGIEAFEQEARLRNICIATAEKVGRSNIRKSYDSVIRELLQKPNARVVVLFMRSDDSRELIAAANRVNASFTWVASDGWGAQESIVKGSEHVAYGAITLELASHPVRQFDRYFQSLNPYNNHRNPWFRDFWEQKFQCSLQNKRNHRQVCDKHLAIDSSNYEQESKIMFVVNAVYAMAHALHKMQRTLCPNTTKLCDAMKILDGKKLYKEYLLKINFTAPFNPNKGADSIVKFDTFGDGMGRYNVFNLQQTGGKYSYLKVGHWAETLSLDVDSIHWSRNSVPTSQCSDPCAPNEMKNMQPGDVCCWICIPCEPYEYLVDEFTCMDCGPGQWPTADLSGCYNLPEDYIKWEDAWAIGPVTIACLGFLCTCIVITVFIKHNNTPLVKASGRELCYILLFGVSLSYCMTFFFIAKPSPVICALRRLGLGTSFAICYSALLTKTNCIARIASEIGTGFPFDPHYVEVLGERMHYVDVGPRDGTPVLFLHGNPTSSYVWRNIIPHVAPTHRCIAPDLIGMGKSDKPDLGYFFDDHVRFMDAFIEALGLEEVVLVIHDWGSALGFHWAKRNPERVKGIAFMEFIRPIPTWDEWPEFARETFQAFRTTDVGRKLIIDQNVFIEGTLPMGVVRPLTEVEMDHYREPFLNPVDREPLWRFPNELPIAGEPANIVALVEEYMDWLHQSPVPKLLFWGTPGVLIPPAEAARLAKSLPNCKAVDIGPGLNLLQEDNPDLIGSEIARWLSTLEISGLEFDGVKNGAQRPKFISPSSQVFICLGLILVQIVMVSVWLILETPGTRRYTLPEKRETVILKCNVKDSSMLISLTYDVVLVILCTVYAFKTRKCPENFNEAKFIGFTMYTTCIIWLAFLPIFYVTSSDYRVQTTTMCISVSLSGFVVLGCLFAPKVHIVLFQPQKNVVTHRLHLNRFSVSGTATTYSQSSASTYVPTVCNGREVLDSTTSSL

The target in data set [4] is mGluR3 (Rattus norvegicus, UniProt P31422). The data set is described as follows: Calcium imaging (G protein chimera, GCaMP6f) in HEK 293 T cells.
Chain of mGluR3 (Rattus norvegicus, UniProt P31422) (P31422 23-879): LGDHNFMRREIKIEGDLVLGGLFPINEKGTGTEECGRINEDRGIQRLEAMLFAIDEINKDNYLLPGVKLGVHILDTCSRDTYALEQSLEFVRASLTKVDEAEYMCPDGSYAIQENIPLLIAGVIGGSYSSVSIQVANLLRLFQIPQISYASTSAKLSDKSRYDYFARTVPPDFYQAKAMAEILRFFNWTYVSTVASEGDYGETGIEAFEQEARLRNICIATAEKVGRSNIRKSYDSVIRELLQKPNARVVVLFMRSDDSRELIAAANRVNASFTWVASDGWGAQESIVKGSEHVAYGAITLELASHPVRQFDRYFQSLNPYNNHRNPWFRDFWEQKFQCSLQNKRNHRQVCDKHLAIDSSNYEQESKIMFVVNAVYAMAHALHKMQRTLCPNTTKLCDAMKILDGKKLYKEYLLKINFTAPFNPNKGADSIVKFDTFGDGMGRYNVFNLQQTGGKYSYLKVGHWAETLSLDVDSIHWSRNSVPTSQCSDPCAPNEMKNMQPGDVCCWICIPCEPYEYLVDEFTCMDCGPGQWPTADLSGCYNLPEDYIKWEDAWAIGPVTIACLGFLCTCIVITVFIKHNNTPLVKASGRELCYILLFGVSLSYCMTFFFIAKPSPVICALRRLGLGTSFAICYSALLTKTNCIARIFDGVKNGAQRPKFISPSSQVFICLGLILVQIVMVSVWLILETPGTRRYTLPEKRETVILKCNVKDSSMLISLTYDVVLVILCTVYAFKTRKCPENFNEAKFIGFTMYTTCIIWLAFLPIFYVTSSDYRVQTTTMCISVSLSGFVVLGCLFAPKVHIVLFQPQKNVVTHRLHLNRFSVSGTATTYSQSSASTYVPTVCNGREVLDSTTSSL
The test system of data set [5] is SNAP-tagged mGluR2 and mGluR3 constructs. In words: Surface expression measurements. The data set is classed as cell-based, rat. The settings on record: construct; single measurements. From the text:
ImageJ was used to analyze fluorescence intensity of cell clusters. […] Fluorescence intensity values for each construct were normalized to wild-type values for comparison.

Where “and” joins values, the source holds several entries; their conditions need not be identical. Equal values may be shown once.
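For Basal FRET Response (%) in this document: receptor HaloTag labeled with JF549 donor and JF646 acceptor (1:3), FRET taken as acceptor over summed donor plus acceptor fluorescence intensity, imaged at room temperature.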

T1 sequence (P31421 19-872 I779A): as the sequence (P31421 19-872) above, with I761A counted along it
T5 sequence (P31421 19-872 C121A/A677S/A681F/A685G/I779A): as the sequence (P31421 19-872) above, with C103A, A659S, A663F, A667G, I761A counted along it
T2 sequence (P31421 19-872 C121A): as the sequence (P31421 19-872) above, with C103A counted along it

By EC50 is commonly meant the concentration giving half of the maximal effect. In the case of `COc1ccccc1Oc1ccc(N(Cc2cccnc2)S(=O)(=O)CC(F)(F)F)cc1` [LY487379, N-(4-(2-methoxyphenoxy)phenyl)-N-(2,2,2-trifluoroethylsulfonyl)pyrid-3-ylmethylamine], the Calcium response amplitude at mGluR2-I779A (LY487379 100 nM) was 0.00; at mGluR2-I779A (LY487379 3 uM), 0.21 and 0.14; on mGluR2-I779A (LY487379 10 uM), 0.34 and 0.27; at mGluR2-I779A (LY487379 100 uM), 0.49 and 0.44; at mGluR2 [1] (LY487379 1 nM, mGluR2), 0.00; on mGluR2 [1] (LY487379 1 nM, normalized to 1 mM glutamate, replicates), 0.00. In addition, the Calcium response amplitude on mGluR2 [1] (LY487379 10 nM, mGluR2) is 0.00; at mGluR2 [1] (LY487379 10 nM, normalized to 1 mM glutamate, replicates) it was 0.00; on mGluR2 [1] (LY487379 100 nM, normalized to 1 mM glutamate, replicates) it was 0.09 and 0.00 and 0.07 and 0.33; on mGluR2 [1] (LY487379 1 uM, mGluR2), 0.53 and 0.49 and 0.68 and 0.50 and 0.51 and 0.46; on mGluR2 [1] (LY487379 1 uM, normalized to 1 mM glutamate, replicates), 0.53 and 0.49 and 0.68 and 0.50 and 0.51 and 0.46; at mGluR2 [1] (LY487379 3 uM, mGluR2), 0.70 and 0.58 and 0.72. For the same molecule, the Calcium response amplitude on mGluR2 [1] (LY487379 3 uM, normalized to 1 mM glutamate, replicates) was 0.70 and 0.58 and 0.72; at mGluR2 [1] (LY487379 10 uM, mGluR2) it was 0.61 and 0.56 and 0.77 and 0.92 and 0.74 and 0.69; at mGluR2 [1] (LY487379 10 uM, normalized to 1 mM glutamate, replicates), 0.61 and 0.56 and 0.77 and 0.92 and 0.74 and 0.69; at mGluR2 [1] (LY487379 100 uM, mGluR2), 0.76 and 0.82 and 0.73 and 0.74; at mGluR2 [1] (LY487379 100 uM, normalized to 1 mM glutamate, replicates), 0.76 and 0.82 and 0.73 and 0.74; on mGluR2-3xTM4 (LY487379 1 nM), 0.00. The Calcium response amplitude on mGluR2-3xTM4 (LY487379 10 nM) is 0.14 and 0.16 and 0.09 and 0.00; at mGluR2-3xTM4 (LY487379 100 nM), 0.27 and 0.19 and 0.25; on mGluR2-3xTM4 (LY487379 1 uM), 0.80 and 0.82 (2×) and 0.66; on mGluR2-3xTM4 (LY487379 3 uM), 0.86 and 0.89; at mGluR2-3xTM4 (LY487379 10 uM) it was 0.94 and 0.93 and 0.86; at mGluR2-3xTM4 (LY487379 100 uM), 0.97 and 0.91 and 0.99. In addition, at mGluR2-I779A (calcium imaging, rightward), the “shift of LY48 EC50 compared to mGluR2” value was 12 fold. Moreover, the EC50 stood at 5.46 ± 0.01 µM at mGluR2-I779A (read-out: LY48 EC50, calcium imaging); 0.45 ± 0.1 µM at mGluR2 [1]; 0.27 ± 0.06 µM on mGluR2-3xTM4.

On to `Cc1c(C(N)=O)nc2n1C[C@@H](COc1ccc(C(C)(C)C)cc1)O2` [TASP], for which the “% Dimerization” value is 70.24% and 67.71% and 72.49% and 72.50% and 70.98% and 74.03% at mGluR2-TMD; 69.61% and 70.23% and 79.80% and 76.57% and 71.76% and 76.09% in the data set on mGluR2-TMD-3xTM4; 52.39% and 61.74% and 61.54% and 62.46% and 33.04% and 41.52% in the data set with mGluR2-TMD-I779A; 47.45% and 39.66% and 50.29% and 36.75% and 47.53% and 38.72% with mGluR2-TMD-3xTM4-I779A; 76.12% and 87.00% and 99.52% and 87.93% and 80.12% and 79.00% at mGluR2-C121A; 78.37% and 85.60% and 87.01% and 85.50% and 86.03% and 88.59% on mGluR2-C121A-3xTM4. In addition, the “% Dimerization” value on mGluR2-C121A-I779A is 59.23% and 63.47% and 55.82% and 58.53% and 66.92% and 63.85%; at mGluR2-C121A-3xTM4-I779A it was 50.00% and 40.35% and 44.84% and 41.46% and 44.90% and 44.88%. The “effect of ligand on dimerization (SiMPull)” value is given as “no sensitivity” on mGluR2-TMD, “clear increase in dimerization” in the data set on mGluR2-TMD-3xTM4 (saturating concentration), “prevented any PAM- or NAM-induced dimerization shifts” with mGluR2-TMD-3xTM4-I779A and “significantly increases dimerization” at mGluR2-C121A-3xTM4 (saturating concentration).

As a reminder, the IC50 is the concentration needed to halve the response being measured. As for MNI 137, the “% Dimerization” value was 80.57% and 69.39% and 68.4% and 70.29% and 73.87% and 66.8% and 70.292% and 73.871% and 80.566% and 69.3893% at mGluR2-TMD; 39.03% and 46.76% and 55.63% and 64.38% and 47.94% and 59.01% with mGluR2-TMD-3xTM4; 60.52% and 74.21% and 73.33% and 77.72% and 88.90% and 81.43% in the data set on mGluR2-TMD-I779A; 46.88% and 52.99% and 50.80% and 55.60% and 41.02% and 44.69% in the data set with mGluR2-TMD-3xTM4-I779A; 71.52% and 91.33% and 86.77% and 100.30% and 93.63% and 83.88% at mGluR2-C121A; 70.00% and 81.03% and 62.91% and 67.92% and 62.85% and 68.46% on mGluR2-C121A-3xTM4. Also, the “% Dimerization” value on mGluR2-C121A-I779A was 83.51% and 83.55% and 76.24% and 73.81% and 83.57% and 74.66%; on mGluR2-C121A-3xTM4-I779A, 49.83% and 50.71% and 40.36% and 45.67% and 37.52% and 54.71%. For the same molecule, the “effect of ligand on dimerization (SiMPull)” value on mGluR2-TMD was “no sensitivity”; in the data set on mGluR2-TMD-I779A (saturating concentration), “clear increase”; in the data set on mGluR2-TMD-3xTM4-I779A, “prevented any PAM- or NAM-induced dimerization shifts”; at mGluR2-C121A-I779A (saturating concentration) it was “significantly increases dimerization”. Moreover, the 50% inhibitory concentration (IC50) in the data set with group II mGluR was ~0.01 µM. Besides, the “block of glutamate-induced FRET responses” value was 32.0 ± 4.5% on mGluR2 [2] (MNI 137 10 μM); 42.9 ± 7.4% on mGluR3 [3] (MNI 137 10 μM); 44.9 ± 8.3% on mGluR3 [3] (MNI 137 50 μM, n = 3). Besides, the “Maximum % Inhibition” value at mGluR2 [2] (mGluR2, Experiment: FRET) is 29.8% and 42.4% and 23.8%; at mGluR2 [1] (mGluR2, Experiment: Function) it was 100%; at mGluR3 [4] (mGluR3, Experiment: Function) it was 100%. Also, on mGluR3 [3] (mGluR3-Halo-ICL2, absence of glutamate, individual measurements), the “Basal FRET Response (%)” value was 13.3% and 15.2% and 5% and 5.6% and 0% and 19.5% and 7.8% and 52%. Besides, the “block of functional (calcium) glutamate response” value at mGluR2 [1] (MNI 137 10 μM) and on mGluR3 [4] (MNI 137 10 μM) was “full block of functional responses” throughout.

On to SNAP-mGluR2-P778A, for which the “Surface Expression” value in data set [5] is 0.58 and 0.76 and 0.68 and 0.87 and 0.59 and 1.10 and 0.91.
